Laboratory results reported in patent publication US20220073470A1, “INHIBITORS OF CGAS ACTIVITY AS THERAPEUTIC AGENTS” (BELLBROOK LABS, LLC, priority 2019, published 2022).
Like-named read-outs stand apart in the source and are kept apart here.

Target: T1, full-length human cGAS (Homo sapiens, UniProt Q8N884)
T1 construct: The cGAS assay was used to screen 100,000 compounds with full-length human cGAS; 6xHis; made in house
Test: cGAS enzymatic assay (FP readout), inhibition of cGAS
Type: biochemical
Protocol: Some exemplary compounds of the disclosure were tested for inhibition of cGAS (30 nM). The results are provided in Table 1 where “A” indicates an IC50 of less than 100 nM, “B” indicates an IC50 of greater than 100 nM and less than 500 nM, “C” indicates an IC50 of greater than 500 nM and less than 1 μM, “D” indicates an IC50 of greater than 1 μM and less than 10 μM, and “E” indicates an IC50 of greater than 10 μM.
A homogenous cGAS enzymatic assay was developed with fluorescence polarization (FP) and time-resolved Forster resonance energy transfer (TR-FRET) readouts (FIG. 2A-D). The cGAS assay was used to screen 100,000 compounds with full-length human cGAS (FIG. 2E), resulting in the identification of novel chemotypes, two of which are further developed in a structure-driven hit-to-lead study (Table 3, below). The assay performance was robust, as indicated by respective Z and Z′ values of 0.59 and 0.63 in the screen; compounds with polarization values greater than three SDs from the mean were considered hits; a scatterplot from 10 plates (3,200 compounds) is shown in FIG. 2D.
Potency and MOA studies, including Mn^2+ sensitivity, are performed using the cGAS enzymatic assay. Dose response experiments are used to determine IC50 values under basal conditions (5 mM MgCl2, 100 μM ATP/GTP), and with the addition of physiological levels of Mn (0.2 mM) using human and mouse cGAS. Ligand optimization is driven by potency with the human enzyme; potency with mouse cGAS informs selection of an appropriate disease model for efficacy studies. Competition with ATP and GTP is assessed by comparing basal IC50 values to those in the presence of saturating ATP or GTP, and subsequently confirmed by measuring velocity vs. substrate at varying ATP or GTP levels. Inhibitor residence times (1/koff) are used as a key parameter for prioritizing compounds and driving SAR, because a longer residence time often results from an allosteric mechanism, and can also correlate with improved cellular activity. The cGAS enzymatic assay is used with the jump dilution method to measure residence times (inhibitor dissociation rates), as described for kinases using the very similar ADP assay. Biophysical methods, including SPR and TSAn, are used as orthologous methods for residence time measurements and kd estimates.

[1] = cGAS (30 nM), no Mn2+, read-out: Inhibition cGAS (IC50 class)
[2] = cGAS (30 nM), with Mn2+, read-out: Inhibition cGAS + Mn^2+ (IC50 class)

T1 sequence (Q8N884 whole entry): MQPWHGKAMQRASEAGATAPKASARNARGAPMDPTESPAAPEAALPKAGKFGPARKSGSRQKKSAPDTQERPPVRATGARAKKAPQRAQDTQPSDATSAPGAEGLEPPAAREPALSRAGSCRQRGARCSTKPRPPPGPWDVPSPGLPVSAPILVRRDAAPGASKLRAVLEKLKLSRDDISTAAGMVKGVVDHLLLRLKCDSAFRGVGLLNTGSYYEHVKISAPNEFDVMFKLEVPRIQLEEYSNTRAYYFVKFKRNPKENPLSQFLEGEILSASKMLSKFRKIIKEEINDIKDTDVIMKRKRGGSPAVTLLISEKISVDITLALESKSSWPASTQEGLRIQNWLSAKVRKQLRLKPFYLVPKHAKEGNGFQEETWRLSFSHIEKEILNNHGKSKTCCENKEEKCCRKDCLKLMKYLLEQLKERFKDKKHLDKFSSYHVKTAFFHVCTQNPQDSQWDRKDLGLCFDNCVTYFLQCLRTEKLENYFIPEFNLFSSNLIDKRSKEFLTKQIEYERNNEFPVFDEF

IC50 [1] [nM] | IC50 [2] [nM] | IC50 (5 mM Mg2+, 0.2 mM Mn2+, read-out: IC50 (5 mM Mg^2+, 0.2 mM Mn^2+)) [nM] | IC50 (5 mM Mg2+, no Mn2+, read-out: IC50 (5 mM Mg^2+)) [nM] | Effect of Mn^2+ on potency against cGAS (Mn2+ at physiological concentration (200 μM)) | Structure (SMILES)
500 to 1000 |  |  |  |  | Nc1cc(-n2ccnc2)c2ccc(Cl)cc2n1 [Compound 19, 7-chloro-4-(1H-imidazol-1-yl)quinolin-2-amine]
> 10000 | > 10000 |  |  |  | COc1ccc(CC(=O)Nc2cccc(C(=O)Nc3ccccc3C(=O)O)c2)cc1 [Compound 29, 2-(3-(2-(4-methoxyphenyl)acetamido)benzamido)benzoic acid]
> 10000 | 1000 to 10000 |  |  |  | Nc1ccc2nccc(-n3ccnc3)c2c1 [Compound 11, 4-(1H-imidazol-1-yl)quinolin-6-amine]
> 10000 | > 10000 |  |  |  | O=C(O)CNc1nc(-c2ccccc2)nc2ccccc12 [Compound 2, (2-phenylquinazolin-4-yl)glycine]
500 to 1000 | 100 to 500 |  |  |  | Clc1ccc2c(-n3ccnc3)c(-c3ccccc3)cnc2c1 [Compound 13, 7-chloro-4-(1H-imidazol-1-yl)-3-phenylquinoline]
1000 to 10000 | > 10000 |  |  |  | COc1cc2c(N3CCC[C@H]3C(=O)O)nc(-c3ccccc3)nc2cc1Cl [Compound 17, (7-chloro-6-methoxy-2-phenylquinazolin-4-yl)-L-proline]
> 10000 |  |  |  |  | COc1ccccc1CC(=O)Nc1cccc(C(=O)Nc2ccccc2C(=O)O)c1 [Compound 30, 2-(3-(2-(2-methoxyphenyl)acetamido)benzamido)benzoic acid]
> 10000 | > 10000 |  |  |  | O=C(Nc1ccc(C(=O)Nc2ccccc2C(=O)O)cc1)c1ccc(I)cc1 [Compound 27, 2-(4-(4-iodobenzamido)benzamido)benzoic acid]
> 10000 |  |  |  |  | Cc1ccc(S(=O)(=O)Nc2ccc(C(=O)Nc3ccncc3)cc2)cc1 [Compound 24, 4-((4-methylphenyl)sulfonamido)-N-(pyridin-4-yl)benzamide]
100 to 500 | < 100 |  |  |  | COc1cc2c(-n3ccnc3)ccnc2cc1Br [Compound 22, 7-bromo-4-(1H-imidazol-1-yl)-6-methoxyquinoline]
> 10000 | > 10000 |  |  |  | O=C(O)[C@@H](Cc1ccccc1)Nc1ncnc2c1CCCC2 [Compound 32, (5,6,7,8-tetrahydroquinazolin-4-yl)-D-phenylalanine]
> 10000 | 1000 to 10000 |  |  |  | COc1ccc2nccc(-n3ccnc3)c2c1 [Compound 3, 4-(1H-imidazol-1-yl)-6-methoxyquinoline]
> 10000 | > 10000 |  |  |  | O=C(Cc1ccccc1)Nc1ccc(C(=O)Nc2ccc(C(=O)O)cc2)cc1 [Compound 26, 4-(4-(2-phenylacetamido)benzamido)benzoic acid]
100 to 500 | < 100 |  |  |  | COc1cc2c(-n3ccnc3)c(C(=O)O)cnc2cc1Cl [Compound 15, 7-chloro-4-(1H-imidazol-1-yl)-6-methoxyquinoline-3-carboxylic acid]
> 10000 | > 10000 |  |  |  | Fc1ccc2c(-n3ccnc3)ccnc2c1 [Compound 8, 7-fluoro-4-(1H-imidazol-1-yl)quinoline]
> 10000 | > 10000 |  |  |  | Clc1ccc2c(-n3ccnc3)ncnc2c1 [Compound 5, 7-chloro-4-(1H-imidazol-1-yl)quinazoline]
> 10000 |  |  |  |  | O=C(NCc1ccccc1)c1nc2[nH]c3c(c(=O)n2n1)CCC3 [Compound 31, N-benzyl-8-oxo-5,6,7,8-tetrahydro-4H-cyclopenta[d][1,2,4]triazolo[1,5-a]pyrimidine-2-carboxamide]
1000 to 10000 | 500 to 1000 |  |  |  | Cc1cc2c(-n3ccnc3)ccnc2cc1Cl [Compound 16, 7-chloro-4-(1H-imidazol-1-yl)-6-methylquinoline]
 | > 10000 |  |  |  | Nc1ccc2c(-n3ccnc3)ccnc2c1 [Compound 9, 4-(1H-imidazol-1-yl)quinolin-7-amine]
> 10000 | 1000 to 10000 |  |  |  | COc1ccc2c(-n3ccnc3)ccnc2c1 [Compound 6, 4-(1H-imidazol-1-yl)-7-methoxyquinoline]
1000 to 10000 | 100 to 500 |  |  |  | Brc1ccc2c(-n3ccnc3)ccnc2c1 [Compound 4, 7-bromo-4-(1H-imidazol-1-yl)quinoline]
> 10000 | 1000 to 10000 |  |  |  | Brc1ccc2nccc(-n3ccnc3)c2c1 [Compound 7, 6-bromo-4-(1H-imidazol-1-yl)quinoline]
1000 to 10000 | 100 to 500 |  |  |  | Clc1ccc2c(-n3ccnc3)cc(-c3ccccc3)nc2c1 [Compound 12, 7-chloro-4-(1H-imidazol-1-yl)-2-phenylquinoline]
> 10000 | > 10000 |  |  |  | O=C(Nc1ccccc1C(=O)O)c1ccc(NC(=O)c2ccccc2Br)cc1 [Compound 28, 2-(4-(2-bromobenzamido)benzamido)benzoic acid]
500 to 1000 | 100 to 500 |  |  |  | CCOc1cc2c(-n3ccnc3)ccnc2cc1Cl [Compound 23, 7-chloro-6-ethoxy-4-(1H-imidazol-1-yl)quinolone]
500 to 1000 | 100 to 500 |  |  |  | Cc1cc(-n2ccnc2)c2ccc(Cl)cc2n1 [Compound 18, 7-chloro-4-(1H-imidazol-1-yl)-2-methylquinoline]
> 10000 | > 10000 |  |  |  | O=C(Cc1ccccc1)Nc1ccc(C(=O)Nc2ccccc2C(=O)O)cc1 [Compound 25, 2-(4-(2-phenylacetamido)benzamido)benzoic acid]
 | 1000 to 10000 |  |  |  | c1ccc(-c2ccc3nccc(-n4ccnc4)c3c2)cc1 [Compound 10, 4-(1H-imidazol-1-yl)-6-phenylquinoline]
1000 to 10000 | 100 to 500 | 790 | 5400 |  | Clc1ccc2c(-n3ccnc3)ccnc2c1 [Compound 1, 7-chloro-4-(1H-imidazol-1-yl)quinolone]
 |  |  |  | significantly less potent | CCN(CC)CCCC(C)Nc1c2ccc(Cl)cc2nc2ccc(OC)cc12 (stereo not shown) [quinacrine, reference compound]
